Measured values: US4141986A, “Antibiotics 890A2 and 890A5” (Merck & Co., Inc., priority 1977, dated 1979)

How the values were obtained:
[1] = system: Vibrio percolans +2 × 10^5 units/ml. penicillinase MB-1272; assay: In vitro antibacterial spectrum profile, agar diffusion, with penicillinase; type: cell-based; conditions: Comamonas terrigena, read-out: Inhib. Zone Diam.
[2] = system: Serratia marcesens ATCC 990; assay: In vitro antibacterial spectrum profile, agar diffusion; type: cell-based; conditions: read-out: Inhib. Zone Diam.
[3] = system: Corynebacterium pseudodiph. ATCC 9742; assay: as above; type: cell-based; conditions: read-out: Inhib. Zone Diam.
[4] = system: Proteus vulgaris (episome) MB-2112; assay: as above; type: cell-based; conditions: read-out: Inhib. Zone Diam.
Procedure: The test to determine the antibiotic spectrum profile of antibiotic 890A2 is carried out by saturating 1/4 inch diameter paper discs in a solution of antibiotic 890A2 in 5% methanol at a concentration of 5 μg./ml.; air drying the saturated paper discs and placing them on the surface of 100 × 15 mm. petri plates containing 5 ml. of seeded nutrient agar plus 0.2% yeast extract.
The test to determine the antibiotic spectrum profile of antibiotic 890A5 is carried out by application of a 0.015 ml. droplet of a 33 μg./ml. aqueous solution of the antibiotic on the surface of a 100 × 15 mm. petri plate containing 5 ml. of seeded nutrient agar plus 0.2% yeast extract.
^a this episome confers resistance to tetracycline, chloramphenicol,
kanamycin and streptomycin at a concentration of 20 μg./ml. and
neomycin at a concentration of 25 μg./ml. and sulfa drugs.

Solubility in water = type: physicochemical; conditions: sodium salt, white powder as lyophilized
[5] = system: Salmonella schottmuellari MB-2837; assay: In vivo protection of intraperitoneally infected mice; conditions: ip, at the time of infection and again 6 hours later; sample of 59 units/ml.; survival data of the seventh day
Procedure: In determining the in vivo activity, antibiotic 890A2 is dissolved in 0.15M NaCl, 0.01M sodium phosphate, pH 7.0, and diluted with water to provide five fourfold concentrations of drug for testing. Female white Swiss mice, averaging about 21 g. in weight, were infected intraperitoneally with the test organism suspended in broth. The numbers of organisms injected were determined by standard plate-count techniques. At the time of infection and again 6 hours later, certain of the mice were treated intraperitoneally with the antibiotic. Five mice were used for each concentration of drug tested. An additional two mice, not infected, were treated with the antibiotic to determine whether the amount of agent injected was toxic. Controls of five mice for each of several dilutions of the infecting culture were included in each test in order to calculate the numbers of organisms that were lethal to 50% of the infected, untreated mice (LD50). This calculation was made using survival data of the seventh day after infection, at which time the amount of drug that should protect 50% of the infected mice (ED50) also was calculated.
All animals receiving this challenge and not treated with antibiotic died within 48 hours of the infection. The efficacy of antibiotic 890A2, having a potency of 59 units/ml., against Salmonella schottmuellari MB-2837 is set forth below: […]

[6] = system: Vibrio percolans ATCC 8461; assay: Bioassay I, agar plate disc-diffusion potency per HAEA308 unit; type: cell-based; conditions: Vibrio percolans ATCC 8461, Bioassay I
Procedure: An agar plate disc-diffusion method is employed using either Vibrio percolans ATCC 8461 or Salmonella gallinarum MB-1287 as tester organism. A purified sample of antibiotic 890A1 is used as standard. Antibiotic 890A1 is prepared according to the procedure set forth in Example 5.
Plates containing Vibrio percolans ATCC 8461 are prepared as follows:
A lyophilized culture of Vibrio percolans ATCC 8461 is suspended in 15 ml. of a sterilized medium containing 8 g./liter of Difco Nutrient Broth and 2 g./liter of yeast extract in distilled water "nutrient broth-yeast extract" (herein after designated NBYE). The culture is incubated overnight on a rotary shaker at 28° C. […]
Filter paper discs of one-half inch diameter are dipped into the solution to be assayed, and are placed on the agar. […] The diameter of the zone of inhibition is measured after appropriate incubation (9-18 hours at 37° C. for Salmonella gallinarum MB-1287 or 12-24 hours at 25° C. for Vibrio percolans ATCC 8461.) If necessary, dilutions of the solutions to be assayed are made in 0.05M potassium phosphate buffer, pH 7.4 "potassium phosphate buffer" (hereinafter referred to as KPB), or in deionized water.
Calculations of potencies proceed as follows: a slope is determined by measuring the zone diameters of a solution of antibiotic 890A2 or 890A5 and of a four-fold dilution (in KPB) of this solution. […]

[7] = 890A2 5 μg./ml., 1/4 inch paper disc
[8] = 890A5 33 μg./ml., 0.015 ml. droplet

Row | Structure (SMILES) | zone of inhibition at 5 µg/mL [1, 7] | zone of inhibition at 5 µg/mL ([2]; ATCC990, 890A2 5 μg./ml., 1/4 inch paper disc) | zone of inhibition at 5 µg/mL ([3]; ATCC9742, 890A2 5 μg./ml., 1/4 inch paper disc) | zone of inhibition at 5 µg/mL [4, 7] | solubility in water (Solubility in water) | ED50 × 2 doses [5] | zone of inhibition at 33 µg/mL [1, 8] | zone of inhibition at 33 µg/mL ([2]; ATCC990, 890A5 33 μg./ml., 0.015 ml. droplet) | antibiotic potency (ratio of bioactivity to HAEA308) [6] | zone of inhibition at 33 µg/mL ([3]; ATCC9742, 890A5 33 μg./ml., 0.015 ml. droplet) | zone of inhibition at 33 µg/mL [4, 8]
1 | CC(=O)NC=CSC1=C(C(=O)O)N2C(=O)C(C(C)O)C2C1 (centres unmarked) [Antibiotic 890A2] | 7 mm | 23 mm | 35 mm | 33 mm | very soluble in water | 19 Units |  |  |  |  | 
2 | CC(=O)NC=CSC1=C(C(=O)O)N2C(=O)C(C(C)O)C2C1 (centres unmarked) [Antibiotic 890A5] |  |  |  |  |  |  | 40 mm | 29 mm | 12 units per HAEA308 unit | 33 mm | 23 mm
